The source of these data is ChEMBL document CHEMBL1154512, “PA-824 kills nonreplicating Mycobacterium tuberculosis by intracellular NO release” (2008).

The subject of the assay is Mycobacterium tuberculosis. Put plainly: Bactericidal activity against Mycobacterium tuberculosis prcAB/tetR mutant after 3 days under anaerobic condition by serial dilution method. Format: functional, organism-based.

Activity calls are given as the source filed them. No cut-off for these calls is given here.

With `O=[N+]([O-])c1cn2c(n1)OC[C@@H](OCc1ccc(OC(F)(F)F)cc1)C2` [PRETOMANID], the outcome was Active.
